The subject of the test is glioma stem cells (GSC). Description: alamarBlue assay: sensitizing glioma stem cells to Temozolomide. The following applies: mibefradil 30 nM for 24 hrs, washed, then Temozolomide 5 μM for 24 hrs, FIG. 4. In kind it is cell-based. The protocol:
FIG. 4. Effect of mibefradil (Mi) on sensitizing glioma stem cells (GSC) to Temozolomide (TMZ). The GSCs were seeded in 24 well plates as 50,000 cells/well overnight. They were grown in serum-free neurobasal media (Invitrogen), supplemented with human recombinant EGF and bFGF (R&D Systems) at 37° C. in 5% CO2, […]. Cells were treated with the T type calcium channel blocker mibefradil (30 nM) for 24 hrs, washed and then treated with Temozolomide (5 μM) for 24 hrs The reagent alamarBlue® (Invitrogen) was added to each well to arrive at a final concentration of 10% alamarBlue® in each well and fluorescence intensity was determined according to the manufacturers instructions. Plates were incubated for 1-2 hrs and 100 μl of supernatant was transferred to a 96 well plate for alamarBlue® reading.
FIG. 5. […]
In order to determine the effect of inhibition of a product of the Hs.459642 Unigene Cluster on cancer stem cells, the effect of two inhibitors of T-type calcium channels was studied to determine if CACNA1H inhibition sensitizes cancer cells to further anti-cancer treatment. […] Subsequent to the combination treatment, with the anti-cancer agent administered sequentially to the CACNA1H inhibitor, fluorescence intensity indicative of cell proliferation was analyzed, with greater intensity indicating increased cellular proliferation. […]

Here are results for one molecule from US20200197516A1, “Antagonists of Products of the HS.459642 Unigene Cluster for the Inhibition of Proliferation, Development or Differentiation of Stem Cells Including Cancer Stem Cells” (Cavion, Inc., priority 2011, published 2020).

With `COCC(=O)O[C@]1(CCN(C)CCCc2nc3ccccc3[nH]2)CCc2cc(F)ccc2[C@@H]1C(C)C` [Mi, mibefradil], the “fluorescence intensity (alamarBlue, indicative of cell proliferation)” value was “dramatically reduced”.
